Assay results published in the supplement of paper PMC7661543.
± gives the standard deviation of the averaged measurements.

Assays:
Test in all cases: relative cell number vs DMSO control (72 h) (% of DMSO); higher = less growth inhibition (more cells)
Conditions in all cases: sgRNA knockout: sgNT
MDA-MB-231 = test system: MDA-MB-231
Protocol: (§1)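 QMAP-Seq: a pool of 5 breast cancer cell lines (ZR-75-1, SKBR3, HCC-38, MDA-MB-231, BT-20), each carrying 12 doxycycline-inducible Cas9 sgRNA perturbations (11 knockouts plus non-targeting sgNT), was treated with compounds for 72 h at four 10-fold doses (10 nM-10 uM or 1 nM-1 uM range). Barcodes were amplified and sequenced, and cell number was interpolated from 293T spike-in standard curves. The result is expressed as % of the median of DMSO wells. Two biological replicates.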

HCC-38 = test system: HCC-38
Protocol: as §1

ZR-75-1 = test system: ZR-75-1
Protocol: as §1

SKBR3 = test system: SKBR3
Protocol: as §1

BT-20 = test system: BT-20
Protocol: as §1

| Compound | relative cell number (MDA-MB-231; 10 nM) | relative cell number (MDA-MB-231; 100 nM) | relative cell number (MDA-MB-231; 1000 nM) | relative cell number (MDA-MB-231; 10000 nM) | relative cell number (HCC-38; 10 nM) | relative cell number (HCC-38; 100 nM) | relative cell number (HCC-38; 1000 nM) | relative cell number (HCC-38; 10000 nM) | relative cell number (ZR-75-1; 10 nM) | relative cell number (ZR-75-1; 100 nM) | relative cell number (ZR-75-1; 1000 nM) | relative cell number (ZR-75-1; 10000 nM) | relative cell number (SKBR3; 10 nM) | relative cell number (SKBR3; 100 nM) | relative cell number (SKBR3; 1000 nM) | relative cell number (SKBR3; 10000 nM) | relative cell number (BT-20; 10 nM) | relative cell number (BT-20; 100 nM) | relative cell number (BT-20; 1000 nM) | relative cell number (BT-20; 10000 nM) |
| --- | --- | --- | --- | --- | --- | --- | --- | --- | --- | --- | --- | --- | --- | --- | --- | --- | --- | --- | --- | --- |
| CNC(=O)c1cc(Oc2ccc(NC(=O)Nc3ccc(Cl)c(C(F)(F)F)c3)cc2)ccn1 [Sorafenib] | 86.7 ± 5 | 93 ± 8.3 | 90.7 ± 10 | 41.1 ± 4.4 | 97.1 ± 9.2 | 133 ± 45 | 124 ± 8.8 | 54.6 ± 2.4 | 70.2 ± 11 | 104 ± 2.9 | 87.4 ± 19 | 41.7 ± 17 | 102 ± 4.4 | 97.1 ± 4.3 | 106 ± 2.8 | 47.8 ± 11 | 116 ± 3.8 | 100 ± 13 | 108 ± 36 | 50.8 ± 8.9 |
| Fc1ccc(CNc2ncnc3ccc(F)cc23)cc1 [Spautin1] | 124 ± 29 | 97 ± 34 | 77.7 ± 26 | 74.8 ± 8 | 104 ± 8 | 99.2 ± 11 | 111 ± 3.9 | 106 ± 1.6 | 55.6 ± 14 | 70.6 ± 3.6 | 94.4 ± 13 | 49.3 ± 9.3 | 87.9 ± 40 | 85.3 ± 0.86 | 87.4 ± 8.4 | 92 ± 23 | 96.8 ± 34 | 86 ± 36 | 89.8 ± 13 | 88.6 ± 19 |
| CC(C)n1cnc2c(NCCc3ccc(O)cc3)nc(-c3csc4ccccc34)nc21 [StemRegenin1] | 101 ± 24 | 97.5 ± 25 | 132 ± 74 | 75.9 ± 11 | 90 ± 7.6 | 116 ± 2.2 | 104 ± 2.8 | 86 ± 4 | 65.1 ± 15 | 135 ± 5.4 | 153 ± 85 | 30.4 ± 12 | 103 ± 9 | 108 ± 14 | 85.7 ± 28 | 29.6 ± 8.4 | 98.5 ± 13 | 115 ± 20 | 94.3 ± 36 | 55 ± 7.7 |
| NC(=O)Nc1sc(-c2ccc(F)cc2)cc1C(N)=O [TPCA1] | 111 ± 21 | 127 ± 23 | 130 ± 4.7 | 69.6 ± 7.9 | 90.2 ± 2.3 | 94.5 ± 5.5 | 100 ± 6.1 | 74.1 ± 4.5 | 104 ± 42 | 94.7 ± 6 | 99.5 ± 6.5 | 43.1 ± 5.7 | 92.2 ± 32 | 93.1 ± 17 | 102 ± 8.7 | 54.5 ± 1.1 | 119 ± 19 | 101 ± 34 | 102.8 ± 0.57 | 69.2 ± 3.1 |
| C=CC[C@@H]1/C=C(\C)C[C@H](C)C[C@H](OC)[C@H]2O[C@@](O)(C(=O)C(=O)N3CCCC[C@H]3C(=O)O[C@H](/C(C)=C/[C@@H]3CC[C@@H](O)[C@H](OC)C3)[C@H](C)[C@@H](O)CC1=O)[C@H](C)C[C@@H]2OC [Tacrolimus] | 133 ± 27 | 106 ± 7.6 | 96.7 ± 7 | 135 ± 12 | 117 ± 8.4 | 99.57 ± 0.7 | 115 ± 14 | 114 ± 5.7 | 108 ± 7.9 | 91.5 ± 29 | 85.6 ± 18 | 92.8 ± 28 | 108 ± 22 | 90.6 ± 11 | 101 ± 17 | 128.1 ± 0.39 | 110 ± 2.2 | 105 ± 4.6 | 101 ± 16 | 120 ± 26 |
| Cn1nnc2c(C(N)=O)ncn2c1=O [Temozolomide] | 125 ± 13 | 108 ± 27 | 89 ± 25 | 101.6 ± 0.8 | 115 ± 2.3 | 89.6 ± 1.4 | 113 ± 6.5 | 137 ± 26 | 89.66 ± 0.62 | 103 ± 16 | 81.7 ± 5.9 | 86.6 ± 3.4 | 111 ± 8.3 | 84.7 ± 20 | 104 ± 27 | 96.1 ± 40 | 106 ± 24 | 111 ± 30 | 111 ± 14 | 132 ± 37 |
| COc1cc([C@@H]2c3cc4c(cc3[C@@H](O[C@@H]3O[C@@H]5CO[C@@H](c6cccs6)O[C@H]5[C@H](O)[C@H]3O)[C@H]3COC(=O)[C@H]23)OCO4)cc(OC)c1O [Teniposide] | 75.8 ± 16 | 25.4 ± 1.1 | 11 ± 1.3 | 11.2 ± 4.8 | 87.1 ± 7.7 | 43 ± 5.7 | 25.52 ± 0.049 | 13.4 ± 2 | 55.8 ± 2.6 | 31.4 ± 6.7 | 29.9 ± 8.2 | 26.1 ± 0.97 | 101 ± 6.8 | 26.4 ± 3.2 | 18.4 ± 2.3 | 15.9 ± 0.19 | 98.2 ± 1.9 | 67.9 ± 24 | 51.2 ± 5.6 | 22.6 ± 5.8 |
| O=C1CCC(N2C(=O)c3ccccc3C2=O)C(=O)N1 (stereo not given) [Thalidomide] | 128 ± 37 | 74.8 ± 24 | 102 ± 29 | 124 ± 19 | 108 ± 8.4 | 95.3 ± 1.2 | 117 ± 4.4 | 115 ± 10 | 79.7 ± 19 | 90.8 ± 6.8 | 74.2 ± 13 | 97.2 ± 55 | 109 ± 39 | 59.4 ± 1.9 | 115 ± 17 | 106 ± 2.4 | 118 ± 11 | 91 ± 0.81 | 114 ± 18 | 113 ± 9 |
| CN(C)c1cc(NC(=O)CNC(C)(C)C)c(O)c2c1C[C@H]1C[C@H]3[C@H](N(C)C)C(O)=C(C(N)=O)C(=O)[C@@]3(O)C(O)=C1C2=O [Tigecycline] | 117 ± 16 | 92.1 ± 21 | 123 ± 18 | 83 ± 9.6 | 87.5 ± 6.1 | 107 ± 30 | 88.8 ± 2.6 | 102 ± 6.5 | 91.5 ± 11 | 96.2 ± 29 | 123 ± 24 | 90.1 ± 21 | 92.5 ± 19 | 69.1 ± 4.5 | 104 ± 33 | 65.6 ± 5.3 | 104 ± 12 | 97.4 ± 4.4 | 112 ± 24 | 118 ± 3.6 |
| O=C1NC(=O)[C@@H](c2cn3c4c(cccc24)CCC3)[C@@H]1c1c[nH]c2ccccc12 [Tivantinib] | 107 ± 20 | 97.1 ± 6.3 | 34.2 ± 18 | 22.9 ± 13 | 89.1 ± 20 | 84.9 ± 14 | 39.6 ± 4.2 | 25.8 ± 3.1 | 69.2 ± 29 | 70.4 ± 1.6 | 20.4 ± 6.4 | 16.6 ± 1.9 | 94.9 ± 2.9 | 71.06 ± 0.6 | 19.5 ± 5.7 | 6.47 ± 2 | 109 ± 24 | 83.6 ± 12 | 53 ± 6.2 | 26 ± 1.1 |
| COc1cc2nccc(Oc3ccc(NC(=O)Nc4cc(C)on4)c(Cl)c3)c2cc1OC [Tivozanib] | 101 ± 2.9 | 105 ± 6.9 | 94.7 ± 14 | 63.3 ± 3.9 | 94.3 ± 6.2 | 94.5 ± 10 | 98.6 ± 11 | 48.4 ± 2.2 | 83.6 ± 67 | 101 ± 13 | 115 ± 4.3 | 33.8 ± 12 | 103 ± 5.7 | 97.7 ± 19 | 96.2 ± 3.3 | 62.3 ± 7 | 87.3 ± 13 | 75.4 ± 7 | 101 ± 8.1 | 79.4 ± 11 |
| CC[C@@]1(O)C(=O)OCc2c1cc1n(c2=O)Cc2cc3c(CN(C)C)c(O)ccc3nc2-1 [Topotecan] | 85.1 ± 59 | 26 ± 0.82 | 16.9 ± 1.2 | 8.21 ± 3.3 | 52.1 ± 9.8 | 20.9 ± 0.31 | 12.1 ± 1.6 | 8.742 ± 0.069 | 65.9 ± 3.4 | 37 ± 5.1 | 14 ± 5.7 | 11.8 ± 9.3 | 58.7 ± 5.9 | 34.7 ± 19 | 12.1 ± 2.9 | 6.08 ± 3.9 | 73.1 ± 10 | 49 ± 8.1 | 30.9 ± 2.8 | 12.1 ± 3.9 |
